Patent US20230278972A1, “SUBSTITUTED HALOALKYL SULFONANILIDE HERBICIDES” (FMC Corporation, priority 2020, published 2023)

Tests used:
Assay type in all cases: in vivo
[1] = system: Pigweed, Palmer (palmer amaranth, palmer pigweed, Amaranthus palmeri); test: Test A1 preemergence, Pigweed, Palmer
Source text: (§1) Seeds of plant species selected from, blackgrass (Alopecurus myosuroides), corn (Zea mays), Foxtail, Giant (giant foxtail, Setaria faberi), goosegrass (Eleusine indica), kochia (Bassia scoparia), Oat, Wild (wild oat, Avena fatua), Pigweed, Palmer (palmer amaranth, palmer pigweed, Amaranthus palmeri), ragweed (common ragweed, Ambrosia artemisiifolia), Ryegrass, Italian (Italian ryegrass, Lolium multiflorum), soybean (Glycine max), and wheat (Triticum aestivum) were planted into a blend of loam soil and sand and treated preemergence with a directed soil spray using test chemicals formulated in a non-phytotoxic solvent mixture which included a surfactant. At the same time, plants selected from these crop and weed species and also galium (catchweed bedstraw, Galium aparine) and horseweed (Erigeron canadensis) were planted in pots containing the same blend of loam soil and sand and treated with postemergence applications of test chemicals formulated in the same manner. Plants ranged in height from 2 to 10 cm and were in the one- to two-leaf stage for the postemergence treatment. […] A dash (-) response means no test result.

[2] = system: ragweed (common ragweed, Ambrosia artemisiifolia); test: Test A1 postemergence, ragweed; details: Postemergence
Source text: as §1

[3] = system: rice (Oryza sativa); test: Test B1 flooded paddy test, rice; details: 250 g ai/ha, Flood, applied to paddy water, 2-leaf stage, visually evaluated after 10 to 14 days
Source text: (§2) A dash (-) response means no test result.

[4] = system: ducksalad (Heteranthera limosa); test: Test B1 flooded paddy test, ducksalad; details: 250 g ai/ha, Flood, applied to paddy water, 2-leaf stage, visually evaluated after 10 to 14 days
Source text: as §2

[5] = system: blackgrass (Alopecurus myosuroides); test: Test A1 preemergence, blackgrass
Source text: as §1

[6] = system: corn (Zea mays); test: Test A1 postemergence, corn; details: Postemergence
Source text: as §1

[7] = system: galium (catchweed bedstraw, Galium aparine); test: Test A1 postemergence, galium; details: Postemergence
Source text: as §1

[8] = system: Ryegrass, Italian (Italian ryegrass, Lolium multiflorum); test: Test A1 postemergence, Ryegrass, Italian; details: Postemergence
Source text: as §1

[9] = system: wheat (Triticum aestivum); test: Test A1 preemergence, wheat
Source text: as §1

[10] = system: corn (Zea mays); test: Test A1 preemergence, corn
Source text: as §1

[11] = system: soybean (Glycine max); test: Test A1 postemergence, soybean; details: Postemergence
Source text: as §1

[12] = system: Oat, Wild (wild oat, Avena fatua); test: Test A1 preemergence, Oat, Wild
Source text: as §1

[13] = system: soybean (Glycine max); test: Test A1 preemergence, soybean
Source text: as §1

[14] = system: Oat, Wild (wild oat, Avena fatua); test: Test A1 postemergence, Oat, Wild; details: Postemergence
Source text: as §1

[15] = system: wheat (Triticum aestivum); test: Test A1 postemergence, wheat; details: Postemergence
Source text: as §1

[16] = system: ragweed (common ragweed, Ambrosia artemisiifolia); test: Test A1 preemergence, ragweed
Source text: as §1

[17] = system: barnyardgrass (Echinochloa crus-galli); test: Test B1 flooded paddy test, barnyardgrass; details: 250 g ai/ha, Flood, applied to paddy water, 2-leaf stage, visually evaluated after 10 to 14 days
Source text: as §2

[18] = system: kochia (Bassia scoparia); test: Test A1 preemergence, kochia
Source text: as §1

[19] = system: kochia (Bassia scoparia); test: Test A1 postemergence, kochia; details: Postemergence
Source text: as §1

[20] = system: Pigweed, Palmer (palmer amaranth, palmer pigweed, Amaranthus palmeri); test: Test A1 postemergence, Pigweed, Palmer; details: Postemergence
Source text: as §1

[21] = system: horseweed (Erigeron canadensis); test: Test A1 postemergence, horseweed; details: Postemergence
Source text: as §1

[22] = system: goosegrass (Eleusine indica); test: Test A1 preemergence, goosegrass
Source text: as §1

[23] = system: goosegrass (Eleusine indica); test: Test A1 postemergence, goosegrass; details: Postemergence
Source text: as §1

[24] = system: Ryegrass, Italian (Italian ryegrass, Lolium multiflorum); test: Test A1 preemergence, Ryegrass, Italian
Source text: as §1

[25] = system: blackgrass (Alopecurus myosuroides); test: Test A1 postemergence, blackgrass; details: Postemergence, 0 to 100 scale (0 no effect, 100 complete control)
Source text: as §1

[26] = system: Foxtail, Giant (giant foxtail, Setaria faberi); test: Test A1 postemergence, Foxtail, Giant; details: Postemergence
Source text: as §1

[27] = system: Foxtail, Giant (giant foxtail, Setaria faberi); test: Test A1 preemergence, Foxtail, Giant
Source text: as §1

[28] = 31 g ai/ha, 0 to 100 scale (0 no effect, 100 complete control)
[29] = 125 g ai/ha, 0 to 100 scale, 0 no effect, 100 complete control
[30] = 31 g ai/ha, 0 to 100 scale (0 no effect, 100 complete control), 10 days

SMILES: Cc1cc(C)c(-n2nccc(C)c2=O)cc1NS(=O)(=O)C(F)(F)F [Compound 281]
- Plant response rating, Pigweed, Palmer [1, 28]: 0
- Plant response rating, Pigweed, Palmer [1, 29]: 40
- Plant response rating, Ragweed [2, 30]: 0
- Plant response rating, Ragweed ([2]; 125 g ai/ha, 0 to 100 scale): 70
- Plant response rating, Rice (0 to 100 scale, 0 is no effect, 100 is complete control) [3]: 0
- Plant response rating, Ducksalad (0 to 100 scale, 0 is no effect, 100 is complete control) [4]: 0
- Plant response rating, Blackgrass [5, 28]: 0
- Plant response rating, Blackgrass [5, 29]: 0
- Plant response rating, Corn [6, 30]: 0
- Plant response rating, Corn ([6]; 125 g ai/ha, 0 to 100 scale): 0
- Plant response rating, Galium [7, 30]: 0
- Plant response rating, Galium ([7]; 125 g ai/ha, 0 to 100 scale): 0
- Plant response rating, Ryegrass, Italian [8, 30]: 0
- Plant response rating, Ryegrass, Italian ([8]; 125 g ai/ha, 0 to 100 scale): 0
- Plant response rating, Wheat [9, 28]: 0
- Plant response rating, Wheat [9, 29]: 20
- Plant response rating, Corn [10, 28]: 0
- Plant response rating, Corn [10, 29]: 0
- Plant response rating, Soybean [11, 30]: 50
- Plant response rating, Soybean ([11]; 125 g ai/ha, 0 to 100 scale): 60
- Plant response rating, Oat, Wild [12, 28]: 50
- Plant response rating, Oat, Wild [12, 29]: 0
- Plant response rating, Soybean [13, 28]: 0
- Plant response rating, Soybean [13, 29]: 80
- Plant response rating, Oat, Wild [14, 30]: 0
- Plant response rating, Oat, Wild ([14]; 125 g ai/ha, 0 to 100 scale): 0
- Plant response rating, Wheat [15, 30]: 0
- Plant response rating, Wheat ([15]; 125 g ai/ha, 0 to 100 scale): 20
- Plant response rating, Ragweed [16, 28]: 0
- Plant response rating, Ragweed [16, 29]: 0
- Plant response rating, Barnyardgrass (0 to 100 scale, 0 is no effect, 100 is complete control) [17]: 0
- Plant response rating, Kochia [18, 28]: 0
- Plant response rating, Kochia [18, 29]: 20
- Plant response rating, Kochia [19, 30]: 0
- Plant response rating, Kochia ([19]; 125 g ai/ha, 0 to 100 scale): 10
- Plant response rating, Pigweed, Palmer [20, 30]: 0
- Plant response rating, Pigweed, Palmer ([20]; 125 g ai/ha, 0 to 100 scale): 40
- Plant response rating, Horseweed [21, 30]: 100
- Plant response rating, Horseweed ([21]; 125 g ai/ha, 0 to 100 scale): 70
- Plant response rating, Goosegrass [22, 28]: 10
- Plant response rating, Goosegrass [22, 29]: 90
- Plant response rating, Goosegrass [23, 30]: 0
- Plant response rating, Goosegrass ([23]; 125 g ai/ha, 0 to 100 scale): 40
- Plant response rating, Ryegrass, Italian [24, 28]: 0
- Plant response rating, Ryegrass, Italian [24, 29]: 40
- Plant response rating, Blackgrass ([25]; 31 g ai/ha, 10 days): 0
- Plant response rating, Blackgrass ([25]; 125 g ai/ha): 0
- Plant response rating, Foxtail, Giant [26, 30]: 0
- Plant response rating, Foxtail, Giant ([26]; 125 g ai/ha, 0 to 100 scale): 30
- Plant response rating, Foxtail, Giant [27, 28]: 0
- Plant response rating, Foxtail, Giant [27, 29]: 100

SMILES: Cc1c(NS(=O)(=O)C(F)(F)F)cc(C(=O)N(C)C)c(C)c1Cl [Compound 287]
- Plant response rating, Pigweed, Palmer [1, 28]: 0
- Plant response rating, Pigweed, Palmer [1, 29]: 90
- Plant response rating, Ragweed [2, 30]: 60
- Plant response rating, Ragweed ([2]; 125 g ai/ha, 0 to 100 scale): 70
- Plant response rating, Rice (0 to 100 scale, 0 is no effect, 100 is complete control) [3]: 0
- Plant response rating, Ducksalad (0 to 100 scale, 0 is no effect, 100 is complete control) [4]: 75
- Plant response rating, Blackgrass [5, 28]: 0
- Plant response rating, Blackgrass [5, 29]: 30
- Plant response rating, Corn [6, 30]: 0
- Plant response rating, Corn ([6]; 125 g ai/ha, 0 to 100 scale): 0
- Plant response rating, Galium [7, 30]: 0
- Plant response rating, Galium ([7]; 125 g ai/ha, 0 to 100 scale): 0
- Plant response rating, Ryegrass, Italian [8, 30]: 0
- Plant response rating, Ryegrass, Italian ([8]; 125 g ai/ha, 0 to 100 scale): 60
- Plant response rating, Wheat [9, 28]: 0
- Plant response rating, Wheat [9, 29]: 30
- Plant response rating, Corn [10, 28]: 0
- Plant response rating, Corn [10, 29]: 0
- Plant response rating, Soybean [11, 30]: 30
- Plant response rating, Soybean ([11]; 125 g ai/ha, 0 to 100 scale): 50
- Plant response rating, Oat, Wild [12, 28]: 0
- Plant response rating, Oat, Wild [12, 29]: 10
- Plant response rating, Soybean [13, 28]: 0
- Plant response rating, Soybean [13, 29]: 30
- Plant response rating, Oat, Wild [14, 30]: 0
- Plant response rating, Oat, Wild ([14]; 125 g ai/ha, 0 to 100 scale): 0
- Plant response rating, Wheat [15, 30]: 0
- Plant response rating, Wheat ([15]; 125 g ai/ha, 0 to 100 scale): 10
- Plant response rating, Ragweed [16, 28]: 0
- Plant response rating, Ragweed [16, 29]: 80
- Plant response rating, Barnyardgrass (0 to 100 scale, 0 is no effect, 100 is complete control) [17]: 0
- Plant response rating, Kochia [18, 28]: 20
- Plant response rating, Kochia [18, 29]: 60
- Plant response rating, Kochia [19, 30]: 0
- Plant response rating, Kochia ([19]; 125 g ai/ha, 0 to 100 scale): 10
- Plant response rating, Pigweed, Palmer [20, 30]: 0
- Plant response rating, Pigweed, Palmer ([20]; 125 g ai/ha, 0 to 100 scale): 40
- Plant response rating, Horseweed [21, 30]: 20
- Plant response rating, Horseweed ([21]; 125 g ai/ha, 0 to 100 scale): 40
- Plant response rating, Goosegrass [22, 28]: 70
- Plant response rating, Goosegrass [22, 29]: 90
- Plant response rating, Goosegrass [23, 30]: 0
- Plant response rating, Goosegrass ([23]; 125 g ai/ha, 0 to 100 scale): 60
- Plant response rating, Ryegrass, Italian [24, 28]: 70
- Plant response rating, Ryegrass, Italian [24, 29]: 90
- Plant response rating, Blackgrass ([25]; 31 g ai/ha, 10 days): 0
- Plant response rating, Blackgrass ([25]; 125 g ai/ha): 0
- Plant response rating, Foxtail, Giant [26, 30]: 0
- Plant response rating, Foxtail, Giant ([26]; 125 g ai/ha, 0 to 100 scale): 0
- Plant response rating, Foxtail, Giant [27, 28]: 0
- Plant response rating, Foxtail, Giant [27, 29]: 30
